# According to patent US20050192289A1, “Novel cinnamic amides” (Active Biotech AB, priority 2004, published 2005):
# Counter-ions that a name gives are not always drawn.
# How the values were obtained:
# CCR1 receptor = biological target: T1, CCR1 receptor (Homo sapiens, UniProt P32246); assay: In vitro Ca2+-flux assay on human monocytes (THP-1 cells stimulated with MIP-1α); assay type: cell-based; conditions: block of MIP-1α mediated Ca2+ mobilisation in THP-1 cells; Fluo-4
# T1 construct: host or cells: THP-1
# T1 sequence (P32246 1-355): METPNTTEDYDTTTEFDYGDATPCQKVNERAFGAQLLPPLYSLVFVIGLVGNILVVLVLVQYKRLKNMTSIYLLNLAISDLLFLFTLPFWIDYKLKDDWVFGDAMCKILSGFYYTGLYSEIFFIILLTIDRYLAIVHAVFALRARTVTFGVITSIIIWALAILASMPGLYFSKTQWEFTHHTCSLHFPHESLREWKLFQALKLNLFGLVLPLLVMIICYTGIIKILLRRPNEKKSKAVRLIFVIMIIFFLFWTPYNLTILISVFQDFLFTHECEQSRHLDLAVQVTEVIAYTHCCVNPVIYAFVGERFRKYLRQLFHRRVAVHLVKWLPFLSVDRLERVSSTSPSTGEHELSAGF
# Protocol: The binding of Mip-1α at the CCR1 receptor leads to an increase of intracellular calcium levels. The ability of the compounds of the invention to block this biologic response of the CCR1 receptor is determined in the Ca^2+-flux assay.
# In vitro Ca^2+-Flux Assay on Human Monocytes
# • 1. Cell Culture: • a) THP-1 (ATCC Cat# TIB202) • b) Tissue culture medium: RPMI 1640 with Ultraglutamine 1 supplemented with 10% (v/v) foetal calf serum. This medium is hereinafter referred to as “growth medium”. • 2. Assay buffer: HMSS (Hanks' balanced salts solution), 20 mM HEPES, 1 mM CaCl2, 1 mM MgCl2, 2.5 mM Probenecid, pH 7.4. • 3. Fluo-4AM (Molecular Probes Cat # F14201) • 4. Pluronic® F-127 (Molecular Probes Cat # P-6867) • 5. The compounds of the invention were dissolved in DMSO. A serial dilution was made and nine concentrations of each compound were screened to generate a dose curve from which the IC50 value was determined. • 6. MIP-1α (Peprotech EC Ltd Cat # 300-08) • 7. Victor^2 1420 (Perkin Elmer) • 8. Microlite™ ^2+ (Dynex Cat # 7572) Assay Procedure:
# THP-1 cells were grown in T-75 cm^2 flasks in growth medium at 37° C. in 5% CO2. The cells were harvested by centrifugation and resuspended in assay buffer. The cells were then loaded with 5 μM Fluo-4 and 0.02% pluronic acid (final concentrations) at 37° C. in 5% CO2 for 30 min. The excess dye was removed by washing with assay buffer. The cells were resuspended and 10^5 cells/well were added in a Microlite plate containing compounds and then incubated for 15 minutes at 37° C. in 5% CO2. The cells were then stimulated with MIP-1α and changes in intracellular free Ca^2+ concentration were measured with a Victor^2.
# [1] = biological target: T2, cloned human CCR1 Chemokine receptor (Homo sapiens, UniProt P32246); assay: In vitro competitive affinity binding assay (displacement of 125I-MIP-1α); conditions: displacement of 125I-MIP-1α from cloned human CCR1 expressed in CHO cells, coated on FlashPlate; 1 hour, ambient temperature
# T2 construct: purchased Perkin Elmer 6120525; host or cells: CHO cells
# T2 sequence (P32246 1-355): T1 sequence (P32246 1-355)
# From the text: In the competitive affinity binding assay, the binding affinity of the compounds for the CCR1 receptor can be determined by measuring their ability to displace ^125I-Mip-1α from the CCR1 receptor.
# In vitro Competitive Affinity Binding Assay
# • 1. Screen Ready™ Targets: cloned human CCR1 Chemokine receptor, expressed in CHO cells, coated on 96-well FlashPlate® (Perkin Elmer Cat #6120525) • 2. Ligand: ^125I-MIP-1α from Perkin Elmer (specific activity is 2200 Ci/mmol) was reconstituted to 25 μCi/L in H2O. • 3. Assay buffer: 50 mM HEPES, 1 mM CaCl2, 5 mM MgCl2, 0.2% BSA, pH 7.4. • 4. MIP-1α (Peprotech EC Ltd Cat # 300-08) • 5. The compounds of the invention were dissolved in DMSO. A serial dilution was made and ten concentrations of each compound were screened to generate a dose curve from which the IC50 value was determined. Assay Procedure:
# Membranes coated on the FlashPlate® were incubated with ^125I-MIP-1α in the presence and absence of different concentrations of compounds at ambient temperature for 1 hour. The radioactivity in each well was determined in a microplate scintillation counter, The non-specific binding was defined by binding in the presence of 1250-fold unlabeled MIP-1α. The assay was performed according to the manufacturer's instruction of Screen Ready™ Targets.
# [2] = In vivo bioavailability in the mouse (cassette dosing, i.v. or oral); conditions: female mice (SJL/N Tac), nominal dose 1 mg/kg/compound; for half-life / clearance: mouse; for half-life: plasma half-life; for clearance: plasma; for F: oral bioavailability, F=(AUCinf,po/AUCinf,iv)·(Doseiv/Dosepo)
# Protocol: Female mice (SJL/N Tac) were given a single intravenous or oral dose of a mixture of 5 or 6 compounds per cassette (nominal dose: 1 mg/kg/compound) in a solution containing 0.5% N,N′-dimethylacetamide (DMA) and 15% sulfobutyl ether β-cyclodextrin (Captisol®). Blood samples were taken from one mouse per time point and dose group until 24 hour after respective administration. The dose formulations and plasma concentrations of each compound were determined by LC-MS/MS. The pharmacokinetic parameters were determined by non-compartmental analysis using WinNonlin Professional (version 4.0.1). The elimination rate constant, λ, was estimated by linear regression analysis of the terminal slope of the logarithmic plasma concentration-time curve. The area under the plasma concentration-time curve, AUC0-t, was calculated by using the linear/logarithmic trapezoidal rule. The AUCinf was calculated with the residual area estimated as Cz/λ. The calculated plasma concentration at the last time point, Cz, was obtained from the regression equation. The oral bioavailability (F) was calculated as: Foral=(AUCinf,po/AUCinf,iv)·Doseiv/Dosepo). Pharmacodynamic Assays
Compound,IC50 (CCR1 receptor),IC50 [1],half-life [2],clearance [2],F [2]
"C[C@@H]1CN(C(=O)/C=C/c2ccc(Cl)c([N+](=O)[O-])c2)[C@@H](C)CN1Cc1ccc(Cl)cc1 (racemic) [Compound 5.2, (E)-(trans)-3-(4-Chloro-3-nitro-phenyl)-1-[4-(4-chloro-benzyl)-2,5-dimethyl-piperazine-1-yl]-prop-2-en-1-one]",6 nM,39 nM,–,–,–
"O=C(/C=C\c1ccc(Cl)cc1)N1CCN(Cc2ccc(F)cc2)CC1 [Compound 8.2, (Z)-3-(4-Chloro-phenyl)-1-[4-(4-fluoro-benzyl)-piperazine-1-yl]-prop-2-en-1-one, reference compound]",> 1000 nM,> 1000 nM,–,–,–
"C[C@@H]1CN(C(=O)/C=C/c2cc(Cl)c3nsnc3c2)[C@@H](C)CN1Cc1ccc(F)cc1 (racemic) [Compound 5.46, (E)-(trans)-3-(4-Chloro-benzo[2,1,3]thiadiazol-6-yl)-1-[4-(4-fluorobenzyl)-2,5-dimethyl-piperazine-1-yl]-prop-2-en-1-one]",7 nM,–,–,–,–
"COc1cc(/C=C/C(=O)N2CCN(Cc3ccc(F)cc3)CC2)cc(OC)c1OC [Compound A, 1-[4-(4-Fluoro-benzyl)-piperazine-1-yl]-3-(3,4,5-trimethoxy-phenyl)-prop-2-en-1-one, reference compound]",110 nM,565 nM,–,–,–
"COc1cc(/C=C/C(=O)N2C[C@@H](C)N(Cc3ccc(F)cc3)C[C@@H]2C)cc(OC)c1OC (racemic) [Compound 5.19, (E)-(trans)-1-[4-(4-Fluoro-benzyl)-2,5-dimethyl-piperazine-1-yl]-3-(3,4,5-trimethoxy-phenyl)-prop-2-en-1-one]",8 nM,17 nM,–,–,–
"O=C(/C=C/c1ccc(Cl)cc1Cl)N1CCN(Cc2ccc(Cl)cc2)CC1 [Compound C, 1-(4-chlorobenzyl)-4-(2,4-dichlorocinnamoyl)-piperazine, reference compound]",120 nM,–,–,–,–
"O=C(/C=C/c1ccc(Cl)cc1)N1CCN(Cc2ccc(F)cc2)CC1 [B, 3-(4-chloro-phenyl)-1-[4-(4-fluoro-benzyl)-piperazine-1-yl]-prop-2-en-1-one, reference compound]",63 nM,235 nM,–,–,–
"C[C@@H]1CN(C(=O)/C=C/c2ccc([N+](=O)[O-])cc2)[C@@H](C)CN1Cc1ccc(F)cc1 (racemic) [Compound 5.5, (E)-(trans)-1-[4-(4-Fluoro-benzyl)-2,5-dimethyl-piperazine-1-yl]-3-(4-nitro-phenyl)-prop-2-en-1-one]",23 nM,33 nM,–,–,–
"C[C@@H]1CN(Cc2ccc(F)cc2)C[C@H](C)N1C(=O)/C=C/c1ccc(Cl)cc1 [F, reference compound]",416 nM,> 1000 nM,–,–,–

# The next lines start with the values.
IC50 (CCR1 receptor),IC50 [1],half-life [2],clearance [2],F [2],Compound
18 nM,–,–,–,–,"C[C@@H]1CN(C(=O)/C=C/c2ccc(Cl)cc2Cl)[C@@H](C)CN1Cc1ccc(F)cc1 (racemic) [Compound 5.6, (E)-(trans)-3-(2,4-Dichloro-phenyl)-]-[4-(4-fluoro-benzyl)-2,5-dimethyl-piperazine-1-yl]-prop-2-en-1-one hydrochloride]"
4 nM,21 nM,–,–,–,"C[C@@H]1CN(C(=O)/C=C/c2ccc(Cl)c([N+](=O)[O-])c2)[C@@H](C)CN1Cc1ccc(F)cc1 (racemic) [Compound 6.2, (E)-(trans)-3-(4-Chloro-3-nitro-phenyl)-1-[4-(4-fluoro-benzyl)-2,5-dimethyl-piperazne-1-yl]-prop-2-en-1-one]"
910 nM,–,–,–,–,"C[C@H]1CN(C(=O)/C=C/c2ccc(Cl)cc2)[C@@H](C)CN1Cc1ccc(F)cc1 (racemic) [Compound 9.1, (E)-(cis)-3-(4-Chloro-phenyl)-1-[4-(4-fluoro-benzyl)-2,5-dimethyl-piperazine-1-yl]-prop-2-en-1-one, reference compound]"
207 nM,> 1000 nM,–,–,–,"C[C@@H]1CN(C(=O)/C=C\c2ccc(Cl)cc2)[C@@H](C)CN1Cc1ccc(F)cc1 (racemic) [Compound 8.1, (Z)-(trans)-3-(4-Chloro-phenyl)-1-[4-(4-fluoro-benzyl)-2,5-dimethyl-piperazine-1-yl]-prop-2-en-1-one, reference compound]"
9 nM,14 nM,5.3 h,80 mL/min/kg,62%,"C[C@@H]1CN(C(=O)/C=C/c2ccc(Cl)cc2)[C@@H](C)CN1Cc1ccc(F)cc1 (racemic) [Compound 6.1, (E)-(trans)-3-(4-Chloro-phenyl)-1-[4-(4-fluoro-benzyl)-2,5-dimethyl-piperazine-1-yl]-prop-2-en-1-one]"
12 nM,43 nM,2.3 h,58.3 mL/min/kg,29%,"C[C@@H]1CN(C(=O)/C=C/c2ccc3nonc3c2)[C@@H](C)CN1Cc1ccc(F)cc1 (racemic) [Compound 5.13, (E)-(trans)-3-Benzo[2,1,3]oxadiazol-5-yl-1-[4-(4-fluoro-benzyl)-2,5-dimethyl-piperazine-1-yl]-prop-2-en-1-one]"
